Laboratory results: patent publication US7491819B1 (priority 2004, dated 2009)

Key:
HIV-1 303B = assay: microbe, parasite or virus in culture; assay type: cell-based; settings: for EC50: Human immunodeficiency virus 1, MT2, 120 h; for overall antiviral effect of the two-drug combination with Example 19 (in words): classification from combination indices and confidence intervals; for Combination Indices at 50% HIV Inhibition (Confidence Interval) / Combination Indices at 75% HIV Inhibition (Confidence Interval) / Combination Indices at 90% HIV Inhibition (Confidence Interval): in combination with Example 19, 95% CI in parenthesis
Method: Virus and cell lines. The T-cell line, MT-2, was obtained through the AIDS Research and Reference Reagent Program. MT-2 cells were sub-cultured twice a week in RPMI 1640 medium supplemented with 10% fetal bovine serum, 2 mM L-glutamine, and 10 mM HEPES buffer pH 7.5. The HIV-1303B virus is a molecular clone derived from the NL4-3 strain of HIV-1 that was obtained from the NIH AIDS Research and Reference Reagent Program. For combinations with enfuvirtide, the NL36G virus was used. […] Virus stocks were made by transfecting 293T cells with a proviral DNA clone using LipofectAMINE PLUS (Invitrogen), according to the manufacturer's instructions. Three days post-transfection, virus was harvested and passaged once in MT-2 cells before titration in MT-2 cells.
Chemicals. Example 19, atazanavir, didanosine, stavudine, efavirenz, and enfuvirtide (T-20) were synthesized by Bristol-Myers Squibb using published or known reactions. […] Tenofovir was tested as tenofovir disopoxil fumarate. Zidovudine and zalcitabine were purchased from Sigma, and emtricitabine from Moravek Biochemicals.
Drug Susceptibility and Cytotoxicity Assays. For drug susceptibility assays, MT-2 cells were infected with HIV-1 303B (or NL36G), at an MOI of 0.001, and seeded into 96-well microtiter plates (2.5×10^5 cells/ml) containing serial dilutions of test compounds. […] Each drug ratio consisted of an array of 3-fold serial dilutions, and was performed with eight or more replicas on separate multi-well plates. HIV infected cells were incubated at 37° C. in 5% CO2, and on day five post-infection, the extent of virus replication was measured by determining cell viability using the CellTiter 96 Aqueous Non-Radioactive Cell Proliferation Assay (Promega). […] Cytotoxicity assays were performed in parallel with the combination experiments. Here, uninfected cells were exposed to the same drug combinations, and assayed after five days for cell viability using the MTS assay.
Analysis of Drug Combination Effects. For determination of combination index (CI) values, drugs were diluted in a fixed ratio and multiple ratios were analyzed. The drug serial dilutions spanned a range of concentrations near the EC50 value of each compound, so that equivalent antiviral activities could be compared. The normalized responses from each therapy are fit to the four-parameter logistic model with a common minimum and maximum across all therapies. Conceptually, this equation can be written as
In this equation, Fa stands for “fraction affected,” and represents the fraction of the viral load that has been inactivated. […] The EC50, represented by the Ci in the above equation, is the drug concentration that is expected to reduce the amount of virus by 50%, and the Bi are the parameters that reflects the slope of the concentration-response curve. For this assay, A is the bottom plateau common to all curves, D is the common top plateau, Bj is the “slope” parameter for the jth therapy, and Cj is the concentration that produces an effect equal to the average of A and D for the jth therapy. Therapies 1 and 2 correspond to mono therapies 1 and 2, respectively. Therapies 3, 4, and 5 correspond to the three combination therapies. EC50 values for each drug were determined from the single drug experiments, using the above equation. The equation was fit using a nonlinear regression routine (Proc Nlin) in PC SAS version 8.2 (SAS Institute Inc.).
To assess antiviral effects of different drug combination treatments, combination indices (CIs) were calculated according to Chou and Rideout. The combination index was computed as
In this equation [Dm]1 and [Dm]2 are the concentrations of drugs that would individually produce a specific level of effect, while [D]1 and [D]2 are the concentrations of drugs in combination that would produce the same level of effect.
Theoretically, additivity is implied if the CI is equal to one, synergy if the CI is less than one, and antagonism if the CI is greater than one.

HIV-integrase = biological target: T1, HIV-integrase (Human immunodeficiency virus type 1 group M subtype B, UniProt P12497); assay: HIV-Integrase Inhibition Activity (SPA bead strand-transfer assay); assay type: biochemical; settings: Table 1; read-out: Activity (HIV-integrase inhibition, IC50 class)
T1 construct: Recombinant integrase (0.26 ng) was incubated with the beads
How it was run: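 Strand-transfer read-out: CPM from P33-labelled target DNA (0.1 fmol) joined to bead-bound biotin substrate DNA (5 pmole), with EDTA stop at 10 mM final. Integrase (0.26 ng) prebound to streptavidin SPA beads 90 min, 37° C, and washed before adding inhibitor.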

[1] = EC50 ratio Example 19:comparator 1:1
[2] = EC50 ratio Example 19:comparator 1:2.5
[3] = EC50 ratio Example 19:comparator 2.5:1

| Compound | EC50 (HIV-1 303B) | overall antiviral effect of the two-drug combination with Example 19 (in words) (HIV-1 303B) | Combination Indices at 50% HIV Inhibition (Confidence Interval) (HIV-1 303B; [1]) | Combination Indices at 75% HIV Inhibition (Confidence Interval) (HIV-1 303B; [1]) | Combination Indices at 90% HIV Inhibition (Confidence Interval) (HIV-1 303B; [1]) | Combination Indices at 50% HIV Inhibition (Confidence Interval) (HIV-1 303B; [2]) | Combination Indices at 75% HIV Inhibition (Confidence Interval) (HIV-1 303B; [2]) | Combination Indices at 90% HIV Inhibition (Confidence Interval) (HIV-1 303B; [2]) | Combination Indices at 50% HIV Inhibition (Confidence Interval) (HIV-1 303B; [3]) | Combination Indices at 75% HIV Inhibition (Confidence Interval) (HIV-1 303B; [3]) | Combination Indices at 90% HIV Inhibition (Confidence Interval) (HIV-1 303B; [3]) | IC50 (HIV-integrase) |
| --- | --- | --- | --- | --- | --- | --- | --- | --- | --- | --- | --- | --- |
| COC(=O)N[C@H](C(=O)N[C@@H](Cc1ccccc1)[C@@H](O)CN(Cc1ccc(-c2ccccn2)cc1)NC(=O)[C@@H](NC(=O)OC)C(C)(C)C)C(C)(C)C [Atazanavir, atazanavir] | 10 nM | confidence interval is below one at all concentrations and effective levels | 0.87 (0.79, 0.96) | 0.67 (0.55, 0.80) | 0.52 (0.37, 0.67) | 0.65 (0.51, 0.78) | 0.45 (0.31, 0.58) | 0.31 (0.19, 0.44) | 0.78 (0.69, 0.86) | 0.60 (0.54, 0.67) | 0.47 (0.40, 0.54) |  |
| CC(C)CN(C[C@@H](O)[C@H](Cc1ccccc1)NC(=O)O[C@H]1CCOC1)S(=O)(=O)c1ccc(N)cc1 [Amprenavir, amprenavir] | 62 nM | synergistic-additive effect | 0.83 (0.67, 1.00) | 0.84 (0.61, 1.08) | 0.89 (0.50, 1.23) | 0.84 (0.69, 0.99) | 0.77 (0.58, 0.96) | 0.75 (0.46, 1.04) | 0.90 (0.77, 1.04) | 0.62 (0.50, 0.74) | 0.44 (0.30, 0.57) |  |
| Nc1nc(=O)n([C@@H]2CS[C@H](CO)O2)cc1F [Emtricitabine, emtricitabine] | 53 nM | synergistic | 0.31 (0.27, 0.36) | 0.23 (0.18, 0.28) | 0.18 (0.12, 0.24) | 0.31 (0.26, 0.37) | 0.23 (0.19, 0.29) | 0.17 (0.12, 0.28) | 0.33 (0.28, 0.38) | 0.25 (0.20, 0.30) | 0.19 (0.13, 0.25) |  |
| Cc1cn([C@H]2C[C@H](N=[N+]=[N-])[C@@H](CO)O2)c(=O)[nH]c1=O [Zidovudine] | 12 nM | synergistic to additive | 0.59 (0.49, 0.69) | 0.56 (0.41, 0.70) | 0.54 (0.36, 0.70) | 0.65 (0.56, 0.75) | 0.73 (0.59, 0.86) | 0.81 (0.57, 1.06) | 0.72 (0.61, 0.83) | 0.83 (0.64, 1.02) | 0.96 (0.63, 1.30) |  |
| Nc1ccn([C@H]2CC[C@@H](CO)O2)c(=O)n1 [Zalcitabine, zalcitabine] | 124 nM | synergistic to additive | 0.61 (0.48, 0.73) | 0.56 (0.39, 0.73) | 0.53 (0.28, 0.79) | 0.55 (0.44, 0.66) | 0.40 (0.31, 0.49) | 0.30 (0.18, 0.42) | 0.80 (0.62, 0.97) | 0.82 (0.58, 1.07) | 0.86 (0.46, 1.26) |  |
| Cc1c(O)cccc1C(=O)N[C@@H](CSc1ccccc1)[C@H](O)CN1C[C@H]2CCCC[C@H]2C[C@H]1C(=O)NC(C)(C)C [Nelfinavir, nelfinavir] | 22 nM | synergistic-additive effect | 0.79 (0.73, 0.86) | 0.75 (0.67, 0.82) | 0.71 (0.56, 0.84) | 0.97 (0.89, 1.06) | 0.87 (0.79, 0.95) | 0.78 (0.68, 0.88) | 1.09 (1.00, 1.18) | 0.98 (0.89, 1.08) | 0.90 (0.76, 1.03) |  |
| CC(C)(C)NC(=O)[C@@H]1CN(Cc2cccnc2)CCN1C[C@@H](O)C[C@@H](Cc1ccccc1)C(=O)N[C@H]1c2ccccc2C[C@H]1O [Indinavir, indinavir] | 26 nM | additive relationship with Example 19 cannot be ruled out | 0.86 (0.80, 0.92) | 0.71 (0.62, 0.81) | 0.60 (0.46, 0.73) | 0.92 (0.84, 0.99) | 0.84 (0.76, 0.92) | 0.77 (0.66, 0.89) | 0.94 (0.87, 1.02) | 0.79 (0.71, 0.87) | 0.67 (0.57, 0.77) |  |
| Cc1cc(C)cc(CNC(=O)c2nc3n(c(=O)c2O)CCOC3(C)C)c1 [Example 38, Pyrimido[2,1-c][1,4]oxazine-2-carboxamide, N-[(3,5-dimethylphenyl)methyl]-4,6,7,9-tetrahydro-3-hydroxy-9,9-dimethyl-4-oxo-] |  |  |  |  |  |  |  |  |  |  |  | 2 to 100 nM |
| CC1(C)OCCn2c1nc(C(=O)NCc1ccccc1N)c(O)c2=O [Example 255, Pyrimido[2,1-c][1,4]oxazine-2-carboxamide, N-[(2-aminophenyl)methyl]-4,6,7,9-tetrahydro-3-hydroxy-9,9-dimethyl-4-oxo-] |  |  |  |  |  |  |  |  |  |  |  | 2 to 100 nM |
| CCC1OCCn2c1nc(C(=O)NCc1ccc(Cl)c(Cl)c1)c(O)c2=O (stereo not shown) [Example 12, Pyrimido[2,1-c][1,4]oxazine-2-carboxamide, N-[(3,4-dichlorophenyl)methyl]-9-ethyl-4,6,7,9-tetrahydro-3-hydroxy-4-oxo-] |  |  |  |  |  |  |  |  |  |  |  | 2 to 100 nM |
| CC1(C)OCCn2c1nc(C(=O)NCc1ccc(F)cc1N1C(=O)CC[C@@H]1CN)c(O)c2=O [Example 133, (R)—N-(2-(2-(Aminomethyl)-5-oxopyrrolidin-1-yl)-4-fluorobenzyl)-3-hydroxy-9,9-dimethyl-4-oxo-4,6,7,9-tetrahydropyrimido[2,1-c][1,4]oxazine-2-carboxamide] |  |  |  |  |  |  |  |  |  |  |  | 100 to 1000 nM |
| Cc1ccc(F)c(CNC(=O)c2nc3n(c(=O)c2O)CCOC3(C)C)c1F [Example 275, Pyrimido[2,1-c][1,4]oxazine-2-carboxamide, N-[(2,6-difluoro-3-methylphenyl)methyl]-4,6,7,9-tetrahydro-3-hydroxy-9,9-dimethyl-4-oxo-] |  |  |  |  |  |  |  |  |  |  |  | 2 to 100 nM |
